Laboratory results from US20250213700A1, “COMPOUNDS, COMPOSITIONS, AND METHODS FOR CELL-SPECIFIC PHARMACOLOGY” (Duke University, priority 2022, published 2025).

Key:
[1] = system: AMPAR; experiment: whole-mount retina, AMPAR-mediated evoked EPSC in retinal ganglion cells; format: cell-based, mouse; conditions: 300 nM, 15 min
Protocol: (FIG. 6A) Viral strategy (top panel). […] Experimental overview (second panel from the top to bottom panel). Top: whole retina; synaptic current is evoked (stim) and recorded (voltage-clamp of dTomato+ RGC), with ionic and pharmaceutical conditions chosen to isolate the AMPAR or GABAAR. A 10 min baseline is followed by 15 min application of 300 nM Rx^DART.2+30 nM Alexa^647.1DART.2. […] (FIG. 6B) CMPDA.2^DART.2 (left). Electropositive spacer (PDB 3RNN). […] AMPAR structural model (middle) (composite of PDB 5WEO, 3RNN, and 1FTL). Cylinder depicts cell membrane. […] YM90K.1^DART.2 (right). Structural model (PDB 1FTL). […] (FIG. 6C) diazepam.1^DART.2 (left). Structural model (PDB 6HUP). […] GABAAR (middle) structural model (composite of PDB 6HUP and 6HUK). […] Structural model (PDB 6HUK).
Preparation of Retina: Mice were intravitreal injected AAV10 HaloTag™-dTomato to eyes. After 8-12 weeks, the mice killed by cervical dislocation. Both eyes were removed and dissected under a stereo-microscope. Retinas were isolated from the eyecups and placed in oxygenated (95% O2/5% CO2) cold-Ames medium (Sigma-Aldrich), supplemented with 21 mM NaHCO3. After the vitreous body was removed, a retina was cut into 3 pieces, leaving each retina piece attached to a filter paper with 2 mm hole by retina ganglion-cell-side-down. The pieces of retina were stored in bubbled Ames solution at room temperature, then transferred to recording chamber with retina ganglion-cell-side-up for recording.
Whole-cell patch-clamp recording: The brain slices or retinas were perfused with bubbled aCSF at 29-30° C. with a 2 ml/min flow rate. Recordings were made by whole cell patch recording techniques using a Multiclamp 700B amplifier (Molecular Devices, Axon Instruments Inc., Union City, CA). The signals were filtered at 10 KHz and acquired using Digitate 1440A and pClamp 10.7 (Molecular Devices). The recording pipettes (4 MΩ-6 MΩ) were filled with internal solutions. For GABAA receptor-mediated evoked inhibitory postsynaptic currents ([…]) recording, the pipettes filled with Cesium Chloride-based internal solution (in mM) 135 CsCl, 2 MgCl2, 0.5 EGTA, 10 HEPES, 4 Mg-ATP, 0.5 Na-GTP, 10 Na2-phosphocreatine, and QX314 (lidocaine N-ethyl bromide), pH adjusted to 7.3 with CsOH (290 mosm). For AMPA-receptor mediated evoked excitatory postsynaptic currents (eEPSCs) recording, the pipette solution contained (in mM) 130 CsMeS, 1 MgCl2, 0.5 EGTA, 10 HEPES, 4 Mg-ATP, 0.5 Na-GTP, 10 Na2-phosphocreatine, and 4 QX314, pH adjusted to 7.3 with CsOH (290 mosm). For experiment of brain slices and retinas, the eIPSCs or eEPSCs were elicited by electrical stimuli at 0.067 Hz in 0.3-ms duration and 150-300-ρA (60-70% maximum responses) stimulation intensity at a holding potential of −70 mV. The stimulating electrode was placed within 60-100 μm from the recording neuron under voltage-clamp mode. GABA-receptor mediated eIPSCs were isolated in the presence of DNQX ([…] AMPAR antagonist) and AP-V ([…] antagonist) in the bath solution. For AMPA-receptor mediated eEPSCs, added picrotoxin ([…], GABAAR antagonist) and AP-V ([…]) to the bath solution.

[2] = system: endogenous GABAARs; experiment: all-optical assay of GABAAR antagonism in primary neuronal culture; format: cell-based, rat
Protocol: Cultured neuronal assays: Preparation of hippocampal cultures: Mixed glial and neuronal cultures were prepared from the hippocampus of postnatal day 0 to 1 Sprague-Dawley rat pups. Separate pools of dissociated cells were transfected via electroporation (LONZA, V4SP-3096) with plasmid constructs, and depending on assay directives, either plated individually or mixed with a different pool of electroporated cells after a 10 min recovery period. Cells were cultured on coverslips (Deckglaser) pre-treated with high molecular weight poly-D-lysine (Sigma, P7405; 0.05 mg/mL) in 24-well plates and maintained in NbActiv4 (BrainBits, Nb4-500) at 37 C, 5% CO2. Media was changed by half at DIV3 or 4 and then weekly thereafter; experiments were performed between DIV16 to DIV18.
Gabazine: Dissociated neurons were electroporated with constructs and cultured for 2 weeks. The assay was performed in the same BASE solution as described above, but with the addition of synaptic blockers CPP (NMDAR antagonist; Tocris) and NBQX (AMPAR antagonist; Abcam, ab120046) to isolate GABAR activity, and a small amount of GABA (GABAR agonist; Sigma) to ensure GABAR activity (=GABAR-BASE). […] Instead, a high dose of regular gabazine was used to completely silence any cells that may not have had realized full antagonism by the end of the assay. Imaging alignment, proof-reading and analysis were performed in a similar fashion to the AMPAR assay using MatLab.
It was next focused on blocking the GABAAR, a ubiquitous transducer of synaptic inhibition. […] The structure-activity literature of gabazine, a selective GABAAR antagonist, was explored. The core gabazine pharmacophore includes of a 3-amino, 6-phenoxy-pyridazine ring, with GABA embedded in the 2-position (2 butyric acid). Based on historical, low-potency predecessors of gabazine, a longer GABA moiety (2 pentanoic acid), and methyl substituents (e.g., 5-CH3) were explored (FIG. 2F). For each variant, the 6-phenoxy moiety was modified to make a gabazinealkyne module, which was click-conjugated to DART.2. Several variants were made, including gabazine.1^DART.2 (2 butyric acid, 5-H), gabazine.5DART.2 (2 pentanoic acid, 5-H), and gabazine.7DART.2 (2 pentanoic acid, 5-CH3). An all-optical assay of endogenous GABAARs in primary neuronal culture was then developed. […] Excitatory synapses were blocked, such that opto-stimulation with ChR2 became the only source of neural excitation.

Structure (SMILES)	AMPAR evoked EPSC block, +HTP cells [1]	AMPAR evoked EPSC block, +HTP cells ([1]; listed as YM90K.1^DART.2)	increase in DW vs gabazine.1DART.2 [2]	increase in HTL50 vs gabazine.1DART.2 [2]	increase in Rx50 vs gabazine.1DART.2 [2]	DW (t=15 m) ([2]; ddHTP vs +HTP cells, 15 min, 15 uM GABA)
COc1cc(CCCCl)ccc1CCOCCNC(=O)c1ccc(CNC(=O)CCOCCOCCOCCOCCOCCOCCOCCOCCOCCOCCOCCOCCOCCOCCOCCOCCOCCOCCOCCOCCOCCOCCOCCOCCOCCOCCOCCOCCOCCOCCOCCOCCOCCOCCOCCOCCn2cc(COCCOCCOCCOCCOCCOCCNC(=O)CCCn3c(=O)c(=O)[nH]c4cc([N+](=O)[O-])c(-n5ccnc5)cc43)nn2)cc1 [YM90K.1DART.2]	blocked the AMPAR-mediated EPSC	blocked on ^+HTP cells				
COc1cc(CCCCl)ccc1CCOCCNC(=O)c1ccc(CNC(=O)CCOCCOCCOCCOCCOCCOCCOCCOCCOCCOCCOCCOCCOCCOCCOCCOCCOCCOCCOCCOCCOCCOCCOCCOCCOCCOCCOCCOCCOCCOCCOCCOCCOCCOCCOCCOCCn2cc(COCCOCCOCCOCCOCCOCCOCCCCCCOc3ccc(-c4nn(CCCCC(=O)O)c(=N)cc4C)cc3)nn2)cc1 [gabazine.7DART.2]			~6 fold	~3 fold	~20 fold	3,000
